Measurements from the Kinase Knowledgebase extract (Sharma et al. 2016).

What was measured:
PIK3CG (human) = PIK3CG (human) (UniProt P48736); assay: Inhibition of PIK3CG Kinase Activity
PIK3CA (human) = PIK3CA (human) (UniProt P42336); assay: Inhibition of PIK3CA Kinase Activity
PIK3CD (Human) = PIK3CD (Human) (UniProt O00329); assay: Inhibition of PIK3CD Kinase Activity
PIK3CB (Human) = PIK3CB (Human) (UniProt P42338); assay: Inhibition of PIK3CB Kinase Activity
Chain of PIK3CB (Human) (P42338 whole entry, looked up): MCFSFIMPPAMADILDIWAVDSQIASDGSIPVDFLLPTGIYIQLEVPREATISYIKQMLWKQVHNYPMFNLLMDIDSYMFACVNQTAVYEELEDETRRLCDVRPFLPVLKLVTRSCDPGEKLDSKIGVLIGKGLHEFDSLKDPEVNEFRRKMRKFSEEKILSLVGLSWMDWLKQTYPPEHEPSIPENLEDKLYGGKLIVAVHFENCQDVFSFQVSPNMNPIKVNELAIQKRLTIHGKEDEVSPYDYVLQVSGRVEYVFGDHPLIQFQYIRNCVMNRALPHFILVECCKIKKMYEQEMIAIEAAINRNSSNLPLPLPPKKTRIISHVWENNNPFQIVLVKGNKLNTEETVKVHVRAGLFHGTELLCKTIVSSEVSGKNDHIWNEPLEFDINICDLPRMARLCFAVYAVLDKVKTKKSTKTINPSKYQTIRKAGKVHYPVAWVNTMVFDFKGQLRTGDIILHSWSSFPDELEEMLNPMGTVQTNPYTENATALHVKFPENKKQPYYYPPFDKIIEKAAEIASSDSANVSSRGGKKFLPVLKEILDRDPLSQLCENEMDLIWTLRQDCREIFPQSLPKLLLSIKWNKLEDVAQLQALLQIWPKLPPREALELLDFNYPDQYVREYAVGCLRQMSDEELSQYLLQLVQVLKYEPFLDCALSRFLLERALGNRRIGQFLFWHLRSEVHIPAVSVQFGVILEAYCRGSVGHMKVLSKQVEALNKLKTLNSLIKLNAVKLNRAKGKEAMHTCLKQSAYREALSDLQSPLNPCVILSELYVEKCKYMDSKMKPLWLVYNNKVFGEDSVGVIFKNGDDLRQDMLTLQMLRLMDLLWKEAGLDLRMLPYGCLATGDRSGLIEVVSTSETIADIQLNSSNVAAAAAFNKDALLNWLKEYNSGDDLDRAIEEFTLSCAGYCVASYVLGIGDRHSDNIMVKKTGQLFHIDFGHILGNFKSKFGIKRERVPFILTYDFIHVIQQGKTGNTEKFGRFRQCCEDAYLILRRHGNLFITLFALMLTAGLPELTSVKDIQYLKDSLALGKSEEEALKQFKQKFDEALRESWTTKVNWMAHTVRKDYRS

Chain of PIK3CD (Human) (O00329 whole entry, looked up): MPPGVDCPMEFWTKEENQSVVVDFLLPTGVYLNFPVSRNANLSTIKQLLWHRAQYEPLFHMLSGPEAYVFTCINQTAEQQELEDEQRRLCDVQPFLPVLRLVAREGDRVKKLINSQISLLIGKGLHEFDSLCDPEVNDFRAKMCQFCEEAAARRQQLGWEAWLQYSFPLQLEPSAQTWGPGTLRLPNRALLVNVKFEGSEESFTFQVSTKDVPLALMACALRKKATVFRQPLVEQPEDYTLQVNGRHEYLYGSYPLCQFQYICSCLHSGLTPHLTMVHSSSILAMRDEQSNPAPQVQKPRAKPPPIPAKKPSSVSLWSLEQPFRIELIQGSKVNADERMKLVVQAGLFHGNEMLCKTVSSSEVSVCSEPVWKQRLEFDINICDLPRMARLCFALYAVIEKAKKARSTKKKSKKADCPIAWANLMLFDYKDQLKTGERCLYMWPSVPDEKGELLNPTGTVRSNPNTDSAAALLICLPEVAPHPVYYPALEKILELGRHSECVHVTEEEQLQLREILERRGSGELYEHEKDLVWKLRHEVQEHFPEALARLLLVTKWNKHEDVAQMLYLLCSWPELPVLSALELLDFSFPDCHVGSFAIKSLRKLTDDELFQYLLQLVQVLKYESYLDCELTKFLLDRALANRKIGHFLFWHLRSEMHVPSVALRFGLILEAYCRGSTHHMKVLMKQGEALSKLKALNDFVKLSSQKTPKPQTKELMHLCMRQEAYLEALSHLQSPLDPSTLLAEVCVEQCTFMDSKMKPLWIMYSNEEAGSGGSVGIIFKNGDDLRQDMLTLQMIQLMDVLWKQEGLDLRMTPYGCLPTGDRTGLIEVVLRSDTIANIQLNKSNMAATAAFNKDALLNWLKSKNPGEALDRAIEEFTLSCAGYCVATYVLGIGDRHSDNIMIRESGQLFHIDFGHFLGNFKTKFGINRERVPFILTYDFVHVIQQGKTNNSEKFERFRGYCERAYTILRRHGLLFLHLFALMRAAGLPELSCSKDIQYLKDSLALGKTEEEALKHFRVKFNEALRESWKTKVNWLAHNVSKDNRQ
Chain of PIK3CA (human) (P42336 whole entry, looked up): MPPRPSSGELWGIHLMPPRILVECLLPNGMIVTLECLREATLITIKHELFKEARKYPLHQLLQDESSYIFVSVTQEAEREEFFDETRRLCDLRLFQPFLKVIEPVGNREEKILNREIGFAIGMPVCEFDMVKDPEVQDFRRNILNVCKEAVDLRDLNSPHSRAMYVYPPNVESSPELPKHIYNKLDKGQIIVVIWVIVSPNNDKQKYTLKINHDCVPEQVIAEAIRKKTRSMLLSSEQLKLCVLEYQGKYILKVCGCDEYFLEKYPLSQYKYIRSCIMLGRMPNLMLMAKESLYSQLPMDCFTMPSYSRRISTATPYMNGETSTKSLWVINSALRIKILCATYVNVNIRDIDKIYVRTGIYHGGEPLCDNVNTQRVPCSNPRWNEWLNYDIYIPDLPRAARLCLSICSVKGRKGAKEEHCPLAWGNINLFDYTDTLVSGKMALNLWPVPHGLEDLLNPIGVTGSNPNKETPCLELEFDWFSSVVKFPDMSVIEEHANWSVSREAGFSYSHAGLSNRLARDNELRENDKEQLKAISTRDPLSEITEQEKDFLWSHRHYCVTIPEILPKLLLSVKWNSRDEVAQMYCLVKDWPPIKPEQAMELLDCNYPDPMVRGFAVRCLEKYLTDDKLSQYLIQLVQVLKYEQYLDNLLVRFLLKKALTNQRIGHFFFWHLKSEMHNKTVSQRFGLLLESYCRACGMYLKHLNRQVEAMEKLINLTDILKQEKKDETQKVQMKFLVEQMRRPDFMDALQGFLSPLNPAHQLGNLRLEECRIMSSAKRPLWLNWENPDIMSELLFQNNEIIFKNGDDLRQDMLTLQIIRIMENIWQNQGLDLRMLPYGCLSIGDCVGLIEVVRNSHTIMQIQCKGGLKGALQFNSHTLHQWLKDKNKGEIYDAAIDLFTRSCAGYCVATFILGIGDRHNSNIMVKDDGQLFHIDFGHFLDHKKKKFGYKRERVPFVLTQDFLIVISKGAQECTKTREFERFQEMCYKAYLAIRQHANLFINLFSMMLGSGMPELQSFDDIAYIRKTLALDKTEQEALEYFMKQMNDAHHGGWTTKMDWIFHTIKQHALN
Chain of PIK3CG (human) (P48736 whole entry, looked up): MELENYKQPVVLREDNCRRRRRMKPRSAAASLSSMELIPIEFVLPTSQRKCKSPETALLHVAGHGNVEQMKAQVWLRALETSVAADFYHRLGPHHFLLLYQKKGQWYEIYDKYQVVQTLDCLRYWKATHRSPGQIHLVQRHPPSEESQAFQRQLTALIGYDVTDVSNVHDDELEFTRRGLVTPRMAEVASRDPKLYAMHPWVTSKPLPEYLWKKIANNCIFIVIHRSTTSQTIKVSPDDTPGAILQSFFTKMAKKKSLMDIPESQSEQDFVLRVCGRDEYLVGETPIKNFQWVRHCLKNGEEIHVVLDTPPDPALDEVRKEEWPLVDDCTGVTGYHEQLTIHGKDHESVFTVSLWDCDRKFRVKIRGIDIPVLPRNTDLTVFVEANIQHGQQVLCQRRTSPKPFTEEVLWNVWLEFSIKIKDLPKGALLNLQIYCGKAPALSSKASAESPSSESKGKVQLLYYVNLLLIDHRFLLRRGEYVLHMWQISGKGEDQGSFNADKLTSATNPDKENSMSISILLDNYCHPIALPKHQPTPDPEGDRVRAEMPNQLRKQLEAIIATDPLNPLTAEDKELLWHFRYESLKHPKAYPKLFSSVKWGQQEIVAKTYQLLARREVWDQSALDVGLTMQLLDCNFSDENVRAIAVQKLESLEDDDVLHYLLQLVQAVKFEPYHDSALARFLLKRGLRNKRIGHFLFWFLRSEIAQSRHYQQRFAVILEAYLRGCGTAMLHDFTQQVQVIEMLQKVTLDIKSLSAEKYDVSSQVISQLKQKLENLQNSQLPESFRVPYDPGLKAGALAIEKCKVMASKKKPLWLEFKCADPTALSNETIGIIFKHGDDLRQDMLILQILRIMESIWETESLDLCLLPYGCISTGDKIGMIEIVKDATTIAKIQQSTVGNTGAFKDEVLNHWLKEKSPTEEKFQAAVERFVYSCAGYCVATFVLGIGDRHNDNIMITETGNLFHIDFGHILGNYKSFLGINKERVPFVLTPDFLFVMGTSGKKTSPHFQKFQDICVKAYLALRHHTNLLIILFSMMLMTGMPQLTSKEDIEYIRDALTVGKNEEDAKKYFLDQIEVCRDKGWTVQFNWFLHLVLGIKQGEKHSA

| SMILES | IC50 (PIK3CG (human)) [nM] | IC50 (PIK3CA (human)) [nM] | IC50 (PIK3CD (Human)) [nM] | IC50 (PIK3CB (Human)) [nM] |
| --- | --- | --- | --- | --- |
| CCN(C)S(=O)(=O)c1cncc(-c2ccn3nc(N)nc3c2)c1 | < 100 | 100 to 1000 | 100 to 1000 |  |
| COc1ccc(-c2ccn3nc(N)nc3c2)cc1OC | < 100 | 100 to 1000 | 100 to 1000 |  |
| Nc1nc2cc(-c3cccnc3)ccn2n1 | 100 to 1000 |  |  |  |
| CC(C)(NS(=O)(=O)c1cncc(-c2ccn3nc(N)nc3c2)c1)C(F)(F)F | < 100 |  | 100 to 1000 | 100 to 1000 |
| Nc1nc2cc(-c3cncc(S(=O)(=O)Nc4ccccc4)c3)ccn2n1 | < 100 | 100 to 1000 |  |  |
| CS(=O)(=O)c1cccc(-c2ccn3nc(N)nc3c2)c1 | 100 to 1000 |  |  |  |
| Nc1nc2cc(-c3cncc(C(F)(F)F)c3)ccn2n1 | 100 to 1000 |  |  |  |
| Nc1nc2cc(-c3cncc(S(=O)(=O)NCc4ccccc4)c3)ccn2n1 | < 100 |  |  |  |
| CCN(CC)S(=O)(=O)c1cncc(-c2ccn3nc(N)nc3c2)c1 | < 100 |  | 100 to 1000 | 100 to 1000 |
| CCCCNS(=O)(=O)c1cccc(-c2ccn3nc(N)nc3c2)c1 | 100 to 1000 |  |  |  |
| CC(C)(C)NS(=O)(=O)c1cncc(-c2cc(F)n3nc(N)nc3c2)c1 | < 100 |  |  | 100 to 1000 |

Next, values leading:

| IC50 (PIK3CG (human)) [nM] | IC50 (PIK3CA (human)) [nM] | IC50 (PIK3CD (Human)) [nM] | IC50 (PIK3CB (Human)) [nM] | SMILES |
| --- | --- | --- | --- | --- |
| < 100 |  | 100 to 1000 | 100 to 1000 | Nc1nc2cc(-c3cncc(S(=O)(=O)NC4CC4)c3)ccn2n1 |
| < 100 |  | 100 to 1000 | 100 to 1000 | CCNS(=O)(=O)c1cncc(-c2ccn3nc(N)nc3c2)c1 |
| < 100 |  | 100 to 1000 | 100 to 1000 | Nc1nc2cc(-c3cncc(S(N)(=O)=O)c3)ccn2n1 |
| < 100 |  | 100 to 1000 | 100 to 1000 | CC(C)NS(=O)(=O)c1cncc(-c2ccn3nc(N)nc3c2)c1 |
| < 100 |  |  |  | CCCNS(=O)(=O)c1cncc(-c2ccn3nc(N)nc3c2)c1 |
| < 100 | 100 to 1000 | 100 to 1000 | 100 to 1000 | CC(C)(C)NS(=O)(=O)c1cncc(-c2ccn3nc(N)nc3c2)c1 |
| < 100 |  |  |  | Nc1nc2cc(-c3cncc(S(=O)(=O)NCC(F)(F)F)c3)ccn2n1 |
| < 100 |  |  |  | Nc1nc2cc(-c3cncc(S(=O)(=O)N4CCC4)c3)ccn2n1 |
| < 100 |  |  |  | CS(=O)(=O)c1cncc(-c2ccn3nc(N)nc3c2)c1 |
| < 100 |  | 100 to 1000 | 100 to 1000 | CNS(=O)(=O)c1cncc(-c2ccn3nc(N)nc3c2)c1 |
